Source: PMC5908784, “Extracellular loops 2 and 3 of the calcitonin receptor selectively modify agonist binding and efficacy” (Biochemical Pharmacology, 2018)
Residue numbers refer to the chain shown, from its start. Where no end group is shown, it is not given here.

Legend:
Assay in all cases: Homologous whole cell competition binding
Conditions in all cases: homologous competition of 125I-sCT(8-32), whole cells, mean ± S.E.M., SEM
[1] = target: T1, hCTR F359A (Homo sapiens, UniProt P30988, F359A)
T1 construct: expressed in transfected cells
T1 sequence (P30988 25-474 F359A): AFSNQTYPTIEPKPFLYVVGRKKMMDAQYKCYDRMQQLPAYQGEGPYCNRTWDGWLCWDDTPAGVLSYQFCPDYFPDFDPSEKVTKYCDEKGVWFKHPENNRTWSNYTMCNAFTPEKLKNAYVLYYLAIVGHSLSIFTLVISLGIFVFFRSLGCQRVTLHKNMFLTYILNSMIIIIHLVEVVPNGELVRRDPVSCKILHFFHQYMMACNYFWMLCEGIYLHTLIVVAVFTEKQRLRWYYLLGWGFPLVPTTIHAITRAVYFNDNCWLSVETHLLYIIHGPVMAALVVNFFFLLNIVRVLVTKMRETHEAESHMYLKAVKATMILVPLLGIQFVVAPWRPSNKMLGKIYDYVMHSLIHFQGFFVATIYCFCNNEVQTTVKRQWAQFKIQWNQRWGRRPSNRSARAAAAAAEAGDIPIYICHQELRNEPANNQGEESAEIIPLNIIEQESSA
Method in brief: (§1)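 Gamma counting of bound ^125I-sCT(8-32) after overnight 4 °C incubation of intact cells with tracer (two levels, 25–100 pM) plus unlabelled sCT(8-32) dilutions. Data normalized to total and 1 μM sCT(8-32) nonspecific binding; pKi via Cheng-Prusoff.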

[2] = target: T2, hCTR E294A (Homo sapiens, UniProt P30988, E294A)
T2 construct: c-Myc (N); expressed in transfected cells
T2 sequence (P30988 25-474 E294A): T1 sequence (P30988 25-474 F359A) with E270A, A335F
Method in brief: as §1

[3] = target: T3, hCTR S364A (Homo sapiens, UniProt P30988, S364A)
T3 construct: c-Myc (N); expressed in transfected cells
T3 sequence (P30988 25-474 S364A): T1 sequence (P30988 25-474 F359A) with A335F, S340A
Method in brief: as §1

[4] = target: T4, hCTR L298A (Homo sapiens, UniProt P30988, L298A)
T4 construct: c-Myc (N); expressed in transfected cells
T4 sequence (P30988 25-474 L298A): T1 sequence (P30988 25-474 F359A) with L274A, A335F
Method in brief: as §1

Substance: VLGKLSQELHKLQTYPRTNTGSGTP-NH2 [sCT(8-32)]
- Ki [1]: 219 pM
- Ki [2]: 263 pM
- Ki [3]: 191 pM
- Ki [4]: 148 pM
